# Experimental data: patent US8440710B2, “HSL inhibitors useful in the treatment of diabetes” (Hoffmann-La Roche Inc., priority 2009, dated 2013)
# Target: T1, human HSL (Homo sapiens, UniProt Q05469)
# T1 construct: generate a full length human HSL ORF with a 3′-His6 tag; made in house; host or cells: High 5 insect cells (baculovirus, pFast-BAC)
# T1 sequence (Q05469 1-1076): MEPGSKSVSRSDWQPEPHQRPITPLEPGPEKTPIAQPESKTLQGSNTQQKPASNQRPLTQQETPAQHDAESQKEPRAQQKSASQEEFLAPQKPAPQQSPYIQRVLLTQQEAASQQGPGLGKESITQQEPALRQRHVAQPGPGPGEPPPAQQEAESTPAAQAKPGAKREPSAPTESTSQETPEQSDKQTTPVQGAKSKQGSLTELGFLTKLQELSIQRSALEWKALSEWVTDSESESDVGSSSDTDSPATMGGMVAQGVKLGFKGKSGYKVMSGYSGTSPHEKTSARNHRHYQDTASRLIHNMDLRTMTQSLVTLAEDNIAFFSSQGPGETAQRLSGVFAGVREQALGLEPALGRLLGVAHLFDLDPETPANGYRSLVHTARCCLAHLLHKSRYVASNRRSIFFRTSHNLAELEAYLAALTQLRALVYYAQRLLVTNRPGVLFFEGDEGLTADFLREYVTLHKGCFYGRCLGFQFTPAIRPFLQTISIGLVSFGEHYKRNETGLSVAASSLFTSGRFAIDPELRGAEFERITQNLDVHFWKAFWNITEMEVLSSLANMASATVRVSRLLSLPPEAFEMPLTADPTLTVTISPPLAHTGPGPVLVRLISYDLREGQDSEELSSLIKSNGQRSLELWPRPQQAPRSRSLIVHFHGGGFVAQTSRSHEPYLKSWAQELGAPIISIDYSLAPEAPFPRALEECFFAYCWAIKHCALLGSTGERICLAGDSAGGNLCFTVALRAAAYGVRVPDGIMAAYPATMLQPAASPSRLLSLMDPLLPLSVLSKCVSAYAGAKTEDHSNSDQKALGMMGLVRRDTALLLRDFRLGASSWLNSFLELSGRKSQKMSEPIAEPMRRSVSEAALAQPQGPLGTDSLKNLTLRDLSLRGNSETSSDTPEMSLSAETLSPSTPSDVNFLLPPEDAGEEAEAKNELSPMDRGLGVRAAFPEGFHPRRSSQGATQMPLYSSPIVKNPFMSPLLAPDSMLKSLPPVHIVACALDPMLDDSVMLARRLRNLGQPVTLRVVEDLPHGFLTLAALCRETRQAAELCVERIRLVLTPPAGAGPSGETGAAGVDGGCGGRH
# Test: Human Hormone-Sensitive Lipase (HSL) enzyme inhibition assay (colorimetric, DMPT substrate)
# Type: biochemical
# Settings: human full length HSL-His6, 2,3-dimercapto-1-propanol tributyrate substrate, 37° C. 20 minutes, absorbance at 405 nm; read-out: HSL hum IC50
# How it was run: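 Full-length human HSL with C-terminal His6, expressed in baculovirus-infected High 5 cells and Ni-NTA purified, was added (15 ug/ml stock) to 1.5 mM DMPT in 100 mM MOPS pH 7.2, 0.2 mg/ml fatty acid-free BSA containing compound. After 20 min at 37 °C, DTNB with SDS/Triton X-100 was added; A405 read after 15 min at RT.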
row,SMILES,IC50 [µM]
1,"CC(C)COC[C@]1(O)CC[C@]2(CCN(c3ccc(OCC(F)(F)F)cc3)C2=O)CC1 [Example 246, (5α,8α)-8-Hydroxy-8-isobutoxymethyl-2-[4-(2,2,2-trifluoro-ethoxy)-phenyl]-2-aza-spiro[4.5]decan-1-one]",0.64
2,"O=C(NC1CC1)O[C@H]1CC[C@@]2(CCN(c3ccc(OC(F)(F)F)cc3)C2=O)CC1 [Example 29, Cyclopropyl-carbamic acid [(5α,8β)-1-oxo-2-(4-trifluoromethoxy-phenyl)-2-aza-spiro[4.5]dec-8-yl]ester]",0.08
3,"O=C1N(c2ccc(C3CC3)cc2)CC[C@]12CC[C@H](O)CC2 [Example 39, (5α,8α)-2-(4-Cyclopropyl-phenyl)-8-hydroxy-2-aza-spiro[4.5]decan-1-one]",0.56
4,"C[C@]1(O)CC[C@@]2(CCN(c3ccc(OCC(F)(F)F)cc3)C2=O)CC1 [Example 87, (5α,8β)-8-Hydroxy-8-methyl-2-[4-(2,2,2-trifluoro-ethoxy)-phenyl]-2-aza-spiro[4.5]decan-1-one]",3.82
5,"CC1=CC[C@@]2(CC1)CCN(c1ccc(OC(F)(F)F)cc1)C2=O [Example 59, 8-Methyl-2-(4-trifluoromethoxy-phenyl)-2-aza-spiro[4.5]dec-7-en-1-one]",1.6
6,"COCCC[C@]1(O)CC[C@]2(CCN(c3ccc(OC(F)(F)F)cc3)C2=O)CC1 [Example 90, (5α,8α)-8-Hydroxy-8-(3-methoxy-propyl)-2-(4-trifluoromethoxy-phenyl)-2-aza-spiro[4.5]decan-1-one]",0.023
7,"CCCc1ccc(N2CC[C@]3(CC[C@@](O)(CC)CC3)C2=O)cc1 [Example 83, (5α,8α)-8-Ethyl-8-hydroxy-2-(4-propyl-phenyl)-2-aza-spiro[4.5]decan-1-one]",0.07
8,"C[C@]1(O)CC[C@]2(CCN(c3ccc(C4CC4)cc3)C2=O)CC1 [Example 73, (5α,8α)-2-(4-Cyclopropyl-phenyl)-8-hydroxy-8-methyl-2-aza-spiro[4.5]decan-1-one]",0.15
9,"C=CC[C@]1(O)CC[C@]2(CCN(c3ccc(O[C@H](C)C(F)(F)F)cc3)C2=O)CC1 [Example 142, (5α,8α)-8-Allyl-8-hydroxy-2-[4-((R)-2,2,2-trifluoro-1-methyl-ethoxy)-phenyl]-2-aza-spiro[4.5]decan-1-one]",0.01
10,"CCC[C@]1(O)CC[C@]2(CCN(c3ccc(C(C)(C)COC)cc3)C2=O)CC1 [Example 132, (5α,8α)-8-Hydroxy-2-[4-(2-methoxy-1,1-dimethyl-ethyl)-phenyl]-8-propyl-2-aza-spiro[4.5]decan-1-one]",0.02
11,"CCCC[C@]1(O)CC[C@@]2(CCN(c3ccc(OC(F)(F)F)cc3)C2=O)CC1 [Example 67, (5α,8β)-8-Butyl-8-hydroxy-2-(4-trifluoromethoxy-phenyl)-2-aza-spiro[4.5]decan-1-one]",11.1
12,"CC[C@]1(O)CC[C@]2(CCN(c3ccc(CCC(F)(F)F)cc3)C2=O)CC1 [Example 169, (5α,8α)-8-Ethyl-8-hydroxy-2-[4-(3,3,3-trifluoro-propyl)-phenyl]-2-aza-spiro[4.5]decan-1-one]",0.05
13,"COCC#C[C@]1(O)CC[C@@]2(CCN(c3ccc(OC(F)(F)F)cc3)C2=O)CC1 [Example 72, (5α,8β)-8-Hydroxy-8-(3-methoxy-prop-1-ynyl)-2-(4-trifluoromethoxy-phenyl)-2-aza-spiro[4.5]decan-1-one]",0.71
14,"CCC[C@]1(O)CC[C@]2(CCN(c3ccc(OC(C)C(F)(F)F)cc3)C2=O)CC1 (stereo partly drawn) [Example 164, (5α,8α)-8-Hydroxy-8-propyl-2-[4-(2,2,2-trifluoro-1-methyl-ethoxy)-phenyl]-2-aza-spiro[4.5]decan-1-one]",0.02
15,"CCC[C@]1(O)CC[C@]2(CCN(c3ccc([C@@H](O)C(F)(F)F)cc3)C2=O)CC1 [Example 133b, (5α,8α)-8-Hydroxy-8-propyl-2-[4-((R)-2,2,2-trifluoro-1-hydroxy-ethyl)-phenyl]-2-aza-spiro[4.5]decan-1-one]",0.03
16,"Cc1cnc(CNC(=O)O[C@H]2CC[C@@]3(CCN(c4ccc(OC(F)(F)F)cc4)C3=O)CC2)cn1 [Example 25, (5-Methyl-pyrazin-2-ylmethyl)-carbamic acid [(5α,8β)-1-oxo-2-(4-trifluoromethoxy-phenyl)-2-aza-spiro[4.5]dec-8-yl]ester]",0.08
17,"C[C@H](Oc1ccc(N2CC[C@]3(CC[C@@](O)(C4CC4)CC3)C2=O)cn1)C(F)(F)F [Example 180, (5α,8α)-8-Cyclopropyl-8-hydroxy-2-[6-((S)-2,2,2-trifluoro-1-methyl-ethoxy)-pyridin-3-yl]-2-aza-spiro[4.5]decan-1-one]",0.03

# Further lines, results first:
row,IC50 [µM],SMILES
1,0.08,"O=C1CCCCN1C[C@]1(O)CC[C@]2(CCN(c3ccc(OCC(F)(F)F)cc3)C2=O)CC1 [Example 368, (5α,8α)-8-Hydroxy-8-(2-oxo-piperidin-1-ylmethyl)-2-[4-(2,2,2-trifluoro-ethoxy)-phenyl]-2-aza-spiro[4.5]decan-1-one]"
2,0.03,"CCC[C@]1(O)CC[C@]2(CCN(c3ccc(C(F)(F)F)cc3)C2=O)CC1 [Example 208, (5α,8α)-8-hydroxy-8-propyl-2-(4-(trifluoromethyl)phenyl)-2-aza-spiro[4.5]decan-1-one]"
3,0.01,"CC(C)SC[C@]1(O)CC[C@]2(CCN(c3ccc(O[C@H](C)C(F)(F)F)nc3)C2=O)CC1 [Example 321, (5α,8α)-8-Hydroxy-8-isopropylsulfanylmethyl-2-[6-((R)-2,2,2-trifluoro-1-methyl-ethoxy)-pyridin-3-yl]-2-aza-spiro[4.5]decan-1-one]"
4,0.01,"CCCOC[C@]1(O)CC[C@]2(CCN(c3ccc(O[C@H](C)C(F)(F)F)cc3)C2=O)CC1 [Example 270, (5α,8α)-8-Hydroxy-8-propoxymethyl-2-[4-((R)-2,2,2-trifluoro-1-methyl-ethoxy)-phenyl]-2-aza-spiro[4.5]decan-1-one]"
5,0.02,"CCc1ccc(N2CC[C@]3(CC[C@@](O)(COc4ccccc4)CC3)C2=O)cc1 [Example 228, (5α,8α)-2-(4-Ethyl-phenyl)-8-hydroxy-8-phenoxymethyl-2-aza-spiro[4.5]decan-1-one]"
6,0.02,"O=C1N(c2ccc(OCC(F)(F)F)cc2)CC[C@]12CC[C@@](O)(COCCC1CC1)CC2 [Example 290, (5α,8α)-8-(2-Cyclopropyl-ethoxymethyl)-8-hydroxy-2-[4-(2,2,2-trifluoro-ethoxy)-phenyl]-2-aza-spiro[4.5]decan-1-one]"
7,0.3,"O=C1N(c2ccc(OCC(F)(F)F)cc2)CC[C@]12CC[C@](O)(COCC(F)F)CC2 [Example 243, (5α,8β)-8-(2,2-Difluoro-ethoxymethyl)-8-hydroxy-2-[4-(2,2,2-trifluoro-ethoxy)-phenyl]-2-aza-spiro[4.5]decan-1-one]"
8,0.03,"COC[C@]1(O)CC[C@]2(CCN(c3ccc(C4CC(F)(F)C4)cc3)C2=O)CC1 [Example 342, (5α,8α)-2-[4-(3,3-Difluoro-cyclobutyl)-phenyl]-8-hydroxy-8-methoxymethyl-2-aza-spiro[4.5]decan-1-one]"
9,0.09,"CC(C)[C@]1(O)CC[C@]2(CCN(c3ccc(C(O)C(F)F)cc3)C2=O)CC1 (stereo partly drawn) [Example 207, (5α,8α)-2-(4-(2,2-difluoro-1-hydroxyethyl)phenyl)-8-hydroxy-8-isopropyl-2-aza-spiro[4.5]decan-1-one]"
10,0.01,"CC(C)OC[C@]1(O)CC[C@]2(CCN(c3ccc(O[C@@H](C)C(F)(F)F)nc3)C2=O)CC1 [Example 309, (5α,8α)-8-Hydroxy-8-isopropoxymethyl-2-[6-((S)-2,2,2-trifluoro-1-methyl-ethoxy)-pyridin-3-yl]-2-aza-spiro[4.5]decan-1-one]"
11,0.05,"CC(C)Oc1ccc(N2CC[C@]3(CC[C@@](O)(c4ccn(C)n4)CC3)C2=O)cc1 [Example 217, (5α,8α)-8-hydroxy-2-(4-isopropoxyphenyl)-8-(1-methyl-1H-pyrazol-3-yl)-2-aza-spiro[4.5]decan-1-one]"
12,0.02,"CCCOC[C@]1(O)CC[C@]2(CCN(c3ccc(OCC(F)(F)F)cc3)C2=O)CC1 [Example 236, (5α,8α)-8-Hydroxy-8-propoxymethyl-2-[4-(2,2,2-trifluoro-ethoxy)-phenyl]-2-aza-spiro[4.5]decan-1-one]"
